# Source: patent publication US7030133B2, “Inhibitors of formation of advanced glycation endproducts (AGEs)” (City of Hope, priority 1999, dated 2006)
# pIC50: −log10 of the molar value.
# Legend:
# [1] = N-Acetyl-Glycyl-Lysine Methyl Ester (G.K. peptide)-Ribose assay; type: biochemical; conditions: 24 hours at 37° C.; for Percent Inhibition in the G.K.-Ribose Assay: 1 millimole/L compound, fluorescence 330/415 nm
# Method: Evaluation of the late glycation products (AGEs), and AGE-inhibition by the new inhibitor compounds was tested by incubation of G.K. peptide in ribose in the presence or the absence of the agent, followed by determination of chromophores generated in the course of glycation and AGE formation through determination of their specific fluorescence. The Nagaraj et al. (1996) method used to evaluate the ability of the compounds of the present invention to inhibit the crosslinking of N-acetylglycyl-lysine methyl ester in the presence of ribose was as follows: Stock Solutions: • 0.5 M sodium phosphate buffer pH 7.4 containing NaN3 0.2 g/L • GK peptide (Sigma) 80 mg/mL in 0.5 M sodium phosphate buffer pH 7.4 • Ribose 800 mM (120 mg/mL) in 0.5 M phosphate buffer Triplicate samples of equal volumes (0.1 mL) of the 3 stock solutions were mixed together, filtered through a 0.2 micron filter (Coming) and incubated under aseptic conditions for 24 hours at 37° C. The inhibitor compounds were added to a final concentration of 1 millimole/L. At the end of the incubation period, samples were analyzed for their specific fluorescence (excitation, 330 nm; emission, 415 nm). The % inhibition by different concentrations of inhibitor was calculated as described above. Aminoguanidine was used at 50 mM as a positive control.
# [2] = tested on: BSA; experiment: BSA-Glucose assay (glucose-mediated development of fluorescence of BSA); type: biochemical; conditions: BSA 50 mg/mL, 800 mM glucose, 7 days at 37° C., fluorescence 330/410 nm; compound concentration not stated
# Method: This test is used to evaluate the ability of the inhibitors to inhibit glucose-mediated development of fluorescence of BSA (Ikeda et al., 1996). Triplicate samples of BSA (fraction V, essentially fatty acid free, low endotoxin) from Sigma 50 mg/mL and 800 mM glucose (144 mg/mL) in […] phosphate buffer pH 7.4 containing NaN3 0.2 g/L was incubated under aseptic conditions at 37° C. for 7 days in the presence or absence of various concentrations of the compounds. After 7 days of incubation each sample was examined for the development of specific fluorescence (excitation, 330 nm; emission, 410 nm). The % inhibition of AGE formation in the test sample versus control was calculated for each inhibitor compound. Aminoguanidine (50 mM) was used as a positive control.
# This method assays for inhibitors of late glycation and AGE formation (post-Amadori).
# [3] = tested on: hemoglobin (HbAlC formation); experiment: Hemoglobin-δ-Gluconolactone (δ-Glu) assay (early stage glycation, HbAlC formation in whole blood); type: cell-based, human; conditions: 1 millimole/L compound, 50 millimoles/L δ-Glu, whole blood from normal volunteers, 16 hours at 37° C.
# Method: The δ-Glu assay is a specific method for investigation of inhibitors of the early stage of glycation. Evaluation of early glycation products (Amadori) formation on hemoglobin (HbAlC) is performed by incubating red blood cells with an oxidized form of glucose in the presence and the absence of the inhibitor compound followed by determination of HbAlC in the test versus the control (Rahbar and Nadler., 1999). […] By contrast, glucose requires weeks for an equivalent reaction to occur. We have used this finding to devise an assay method to measure early stage glycation of hemoglobin (Amadori product) and an assay to evaluate the ability of an inhibitor to inhibit HbAlC formation. Briefly, fresh blood was drawn in potassium-EDTA and prepared for incubation within 30 minutes of collection by mixing 200 μL of blood with 40 μL of either phosphate buffered-saline (PBS), pH 7.4, alone, PBS containing 50 millimoles/L δ-Glu (Sigma), or PBS containing 50 millimoles/L δ-Glu plus 1 millimole/L inhibitor. After incubation for 16 hours at 37° C., the percentage of glycated hemoglobin present was determined. The percentage of glycated Hb (HbAlC) was determined using a dedicated ion-exchange HPLC system (BIORAD DIAMAT). Blood samples were analyzed in triplicate. The % inhibition of HbAlC formation by the compound was calculated according to the following formula: ((B−C)/(B−A))×100 where A is HbAlC concentration in the baseline control tube not treated with δ-Glu, B is the HbAlC concentration in blood incubated with δ-Glu, C is the HbAlC content of the test tube treated both with δ-Glu and the inhibitor compound.
# The amount of (HbAlC) formation using δ-Glu treated whole blood from normal volunteers using 1 millimole/L of the compounds was calculated. Various inhibitors (compounds LR103-LR115) show different levels of HbAlC depending on their inhibitory potencies.
# [4] = Inhibition of copper-catalyzed autooxidation of ascorbic acid (copper-chelating activity); type: physicochemical; conditions: read-out: IC50, concentration that inhibited the rate of ascorbic acid oxidation by 50% (copper-chelating activity), FIGS. 3 and 4
# Method: This assay was performed according to Price et al. (2001). The kinetics of oxidation of ascorbic acid (AA) at the rate of decrease in absorbance at 265 nm was measured. For studies with AGE inhibitors, the ascorbic acid was added to initiate the reaction. Aliquots were removed at 0, 15, 30, 45, and 60 minutes and transferred to autoinjector vials containing DPTA. Samples were analyzed by reverse phase HPLC, (Waters 2690 Millenium 32 Separator Module), equipped with an auto-injector using Xterra™ RP18 column (250×4.6 mm, 5 μm). Solvents and gradient were all used as described in Price et al. (2001). The concentration of each inhibitor compound that inhibited the rate of AA oxidation by 50% was calculated using Prism (Graph Pad-San Diego).
Compound,Percent Inhibition in the G.K.-Ribose Assay [1] [%],Percent Inhibition in the BSA-Glucose Assay [2] [%],Percent Inhibition of HbAlC formation in the δ-Glu Assay [3] [%],Percent Inhibition in the G.K.-Ribose Assay (positive control) ([1]; Aminoguanidine 50 mM) [%],pIC50 [4]
"4,4′-bis [(methyleneoxyethyleneamino)phenoxy]isobutyric acid [LR112]",21,44.7,43.2,–,–
"4-[(3,5-dichlorophenyureido)phenoxyisobutyrylamido]-2-hydroxybenzene-4-carboxylic acid [LR114]",7.2,22.7,45.4,–,–
"N=C(N)NN [AG, aminoguanidine, reference compound]",–,–,–,67,–
"CC(C)(Oc1ccc(N(Cc2ccc(Cl)cc2)C(=O)Nc2ccc(Cl)c(Cl)c2)cc1)C(=O)O [LR103, 1-[(4-chlorobenzyl)-3-(3,4-dichlorophenylureido)]-4-phenoxyisobutyric acid]",14,4,43.2,–,~4.12
"CC(C)(Oc1ccc(NC(=O)Nc2ccc(F)c(Cl)c2)cc1)C(=O)Nc1ccccc1C(=O)O [LR104, 4-(4-fluoro-3-chlorophenylurido)phenoxyisobutyrylamidophenyl-2-carboxylic acid]",0,18.4,47.7,–,~4.00
"CC(C)(Oc1ccc(N(Cc2c(F)cccc2Cl)C(=O)Nc2ccc(Cl)c(Cl)c2)cc1)C(=O)O [LR105, 1[(2-fluoro-6-chlorobenzyl)-3-(3,4-dichlorophenyureido)]-4-phenoxyisobutyric acid]",12,21.5,38.6,–,–
"CC(C)(Oc1ccc(NCc2ccc(Cl)cc2)cc1)C(=O)O [LR106, 4-(4-chlorobenzylaminophenoxyisobutyric)acid]",10.5,14.4,40.9,–,–
"CC(C)(Oc1ccc(NC(=O)Nc2ccc(NC(=O)Nc3ccc(OC(C)(C)C(=O)O)cc3)c(Cl)c2)cc1)C(=O)O [LR107, 2-chlorobenzene-1,4-bis(4-ureidophenoxyisobutyric acid)]",19.5,28.7,43.2,–,–
"CC(C)(Oc1ccc(N(Cc2ccc(Cl)cc2)C(=O)Nc2cc(Cl)cc(Cl)c2)cc1)C(=O)O [LR108, 1-[(4-chlorobenzyl)-3-(3,5-dichlorophenyureido)]-4-phenoxyisobutyric acid]",19.7,31.1,2.0,–,–
"CC(C)(Oc1ccc(N(Cc2c(F)cccc2Cl)C(=O)Nc2c(F)cccc2Cl)cc1)C(=O)O [LR109, 1-[(2-fluoro-6-chlorobenzyl)-3-(2-fluoro-6-chlorophenylureido)]-4-phenoxyisobutyric acid]",9.5,34.6,56.8,–,–
"CC(C)(Oc1ccc(NC(=O)c2c3c(nc4ccccc24)CCCC3)cc1)C(=O)O [LR110, 4-(1,2,3,4-tetrahydroacridine-9-carboxamidophenoxyisobutyric)acid]",11,28.5,38.6,–,–
"O=C(O)COc1cccc2cccnc12 [LR111, 8-quinolinoxy acetic acid]",9.7,21.6,38.6,–,–
"CC(=O)N[C@@H](Cc1c[nH]cn1)C(=O)Oc1cccc2cccnc12 [LR113, L-8-quinolinolyl(acetylhistidine)]",11,21.5,36.3,–,–
"CC(C)(Oc1ccc(NC(=O)Nc2cc(Cl)cc(Cl)c2)cc1)C(=O)N[C@@H](Cc1ccccc1)C(=O)O [LR115, L, α-4-[(3,5-dichlorophenyureido)phenoxyisobutyrylamido]phenylalanine]",0,22.3,47.7,–,–
